Reference: US20230133243A1, “CONDITIONING REGIMENS FOR IN VIVO GENE THERAPY” (Fred Hutchinson Cancer Center, priority 2020, published 2023)

How the values were obtained:
IL-6 = assay: Rhesus serum cytokine levels by cytometric bead array after IV HDAd5/35++ (IL-6); assay type: in vivo, rhesus macaques; conditions: NHPs; measured by IL-6 and/or TNF levels
Description: FIGS. 12A-12E. […] (FIGS. 12A-12C) Serum IL-6. (FIGS. 12D, 12E) Serum TNFα.
FIG. 29. […] Serum IL-6 (pg/mL) levels are shown for NHP #4. […] Arrows indicate administration of adenoviral vector.
FIG. 31. […] Serum IL-6 (pg/mL) levels are shown for NHP #5. […] Arrows indicate administration of adenoviral vector.
Serum cytokines returned back to baseline by 24 hrs.

[1] = Tolerability, physical health, hematology and blood chemistry in the NHP in vivo HSC gene therapy study; set-up: species or system rhesus macaques; conditions: NHP #2, given through a gastric catheter over 5 days; day 3 after HDAd injection
Description: NHP #1 received a donor vector containing two payload modules: i) a transposon module for random integration into host cell genomes of a human γ-globin gene operably linked with a mini-β-globin LCR, together with an MGMT^P140K selection marker operably linked with an EF1α promoter, and ii) a CRISPR/Cas9 module for CRISPR/Cas9-mediated reactivation of endogenous rhesus γ-globin expression (FIG. 8B). This combination donor vector was co-injected with a support vector that expresses an activity-enhanced Sleeping Beauty transposase (SB100x) (HDAd-SB), activity of which mediates γ-globin gene addition by integration of the transposon into host cell genomes and triggers the destruction of the CRISPR/Cas9 module thus restricting the duration of the CRISPR/Cas9 system's expression and activity (FIG. 8B). […] The vector injected into NHP #3 was similar to the NHP #1 vector but encoded rhesus γ-globin instead of human γ-globin to minimize immune responses against transgene products in the NHP (FIG. 8D).
None of the three animals had detectable anti-vector antibodies at the time of enrollment. Unexpectedly, NHP #1 acquired antibodies during quarantine (titer 1:680). NHP #1 and #3 were monitored for 6 months. […] Despite this, a set of relevant data could be collected from this animal. […]

human MGMT^P140K = assay: Anti-human MGMT^P140K immune responses under adaptive immunosuppression; assay type: in vivo, rhesus macaques; conditions: fully immunocompetent animals
Description: Serum antibody (IgG and IgM) titers against recombinant human MGMT protein in NHP #3 (FIG. 18A) and NHP #1 (FIG. 18B).
To suppress adaptive immune responses, NHP #1 received daily tacrolimus/sirolimus/MMF. […] For NHP #3, it was therefore decided to administer only tacrolimus (SC) as this had been sufficient in myelo-ablated/-conditioned rhesus macaques.

Q: With “anakinra: engineered human IL-1 receptor antagonist (IL-1Ra), recombinant non-glycosylated protein, SEQ ID NO: 1” as the compound, how does the “innate immune response to HDAd5/35++” value (IL-6) read?
A: potent agent for suppressing in vivo immune responses

Q: With `C=CC[C@@H]1/C=C(\C)C[C@H](C)C[C@H](OC)[C@H]2O[C@@](O)(C(=O)C(=O)N3CCCC[C@H]3C(=O)O[C@H](/C(C)=C/[C@@H]3CC[C@@H](O)[C@H](OC)C3)[C@H](C)[C@@H](O)CC1=O)[C@H](C)C[C@@H]2OC` [tacrolimus] as the compound, how does the outcome of overdose [1] read?
A: had to be euthanized

Q: What about the “control of anti-human MGMT^P140K antibodies (and T-cell responses)” value (human MGMT^P140K) of the same compound?
A: did not prevent
